Data from ChEMBL document CHEMBL1201862, “PubChem BioAssay data set” (2004).
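Cells were grown in 96-well plates and exposed to each compound for 48 hours at five concentrations; endpoints were interpolated linearly between bracketing concentrations, or set to the highest concentration if not reached. GI50: concentration for 50% inhibition of growth.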 Active and inactive are the calls of the source. Rule as the data show it: active = GI50 up to about 1.1 µM and inactive = higher.

What was measured:
Assay in all cases: inhibition of tumour cell growth, NCI panel, 48 h
786-0 = system: 786-0
A498 = system: A498
CAKI-1 = system: CAKI-1
EKVX = system: EKVX
HCT-116 = system: HCT-116
HOP-62 = system: HOP-62
HOP-92 = system: HOP-92
IGROV-1 = system: IGROV-1
M14 = system: M14
MDA-MB-435 = system: MDA-MB-435
NCI-H226 = system: NCI-H226
OVCAR-5 = system: OVCAR-5
OVCAR-8 = system: OVCAR-8
RPMI-8226 = system: RPMI-8226
SF-295 = system: SF-295
SK-MEL-2 = system: SK-MEL-2
SN12C = system: SN12C
SR = system: SR
UACC-257 = system: UACC-257
UO-31 = system: UO-31

| Structure (SMILES) | GI50 (786-0) | GI50 (A498) | GI50 (CAKI-1) | GI50 (EKVX) | GI50 (HCT-116) | GI50 (HOP-62) | GI50 (HOP-92) | GI50 (IGROV-1) | GI50 (M14) | GI50 (MDA-MB-435) | GI50 (NCI-H226) | GI50 (OVCAR-5) | GI50 (OVCAR-8) | GI50 (RPMI-8226) | GI50 (SF-295) | GI50 (SK-MEL-2) | GI50 (SN12C) | GI50 (SR) | GI50 (UACC-257) | GI50 (UO-31) |
| --- | --- | --- | --- | --- | --- | --- | --- | --- | --- | --- | --- | --- | --- | --- | --- | --- | --- | --- | --- | --- |
| O=C1c2ccccc2C(=O)c2c(NC3CCCCC3)ccc(Nc3ccc(S(=O)(=O)O)cc3)c21 | 45.7 µM (inactive) | > 100 µM (inactive) | > 100 µM (inactive) | 17 µM (inactive) | 29.7 µM (inactive) | > 100 µM (inactive) | > 100 µM (inactive) | 32.7 µM (inactive) | 35.1 µM (inactive) | 39.1 µM (inactive) | > 100 µM (inactive) | > 100 µM (inactive) | 35.3 µM (inactive) | 45.2 µM (inactive) | > 100 µM (inactive) | 21.8 µM (inactive) | 20.6 µM (inactive) | 36.1 µM (inactive) | 23.9 µM (inactive) | 59 µM (inactive) |
| CCN1CC2=C(OC(N)=C(C#N)C2c2ccc(Cl)cc2)/C(=C/c2ccc(Cl)cc2)C1 (stereo not drawn) | 12.1 µM (inactive) | 16.5 µM (inactive) | 10.2 µM (inactive) | 39.5 µM (inactive) | 14.1 µM (inactive) | 18.2 µM (inactive) | 0.527 µM (active) | 20.8 µM (inactive) | 21.5 µM (inactive) | 43.3 µM (inactive) | 31 µM (inactive) | 20.1 µM (inactive) | 16.6 µM (inactive) | 18 µM (inactive) | 30.1 µM (inactive) | 27.6 µM (inactive) |  | 31.9 µM (inactive) | 28.1 µM (inactive) | 36.4 µM (inactive) |
| C/C(=N\NC(=S)Nc1ccccc1)c1nc2cccnc2[nH]1 | 2.54 µM (inactive) | 8.17 µM (inactive) | 4.63 µM (inactive) | 0.649 µM (active) | 1.63 µM (inactive) | 8.47 µM (inactive) | 12.9 µM (inactive) | 3.48 µM (inactive) | 3.58 µM (inactive) | 3.7 µM (inactive) | 2.59 µM (inactive) | 4.79 µM (inactive) | 2.76 µM (inactive) | 3.75 µM (inactive) | 3.46 µM (inactive) | 16.9 µM (inactive) | 4.33 µM (inactive) | 0.766 µM (active) | 2.18 µM (inactive) | 1.38 µM (inactive) |
| OC(c1ccc2c(c1)OCO2)c1ccc2c(c1)OCO2 | > 100 µM (inactive) | 54 µM (inactive) | > 100 µM (inactive) | > 100 µM (inactive) | > 100 µM (inactive) | > 100 µM (inactive) | > 100 µM (inactive) | > 100 µM (inactive) | > 100 µM (inactive) | > 100 µM (inactive) | > 100 µM (inactive) | > 100 µM (inactive) | > 100 µM (inactive) | > 100 µM (inactive) | > 100 µM (inactive) | > 100 µM (inactive) | > 100 µM (inactive) | > 100 µM (inactive) | > 100 µM (inactive) | 75 µM (inactive) |
| N/C(=N\c1ccccc1Cl)c1ccccc1N | > 100 µM (inactive) | > 100 µM (inactive) | > 100 µM (inactive) | > 100 µM (inactive) | > 100 µM (inactive) | > 100 µM (inactive) | 16 µM (inactive) | 45.8 µM (inactive) | > 100 µM (inactive) | > 100 µM (inactive) | > 100 µM (inactive) | > 100 µM (inactive) | > 100 µM (inactive) | > 100 µM (inactive) | > 100 µM (inactive) | > 100 µM (inactive) |  | > 100 µM (inactive) | > 100 µM (inactive) | > 100 µM (inactive) |
| COc1ccc(/N=N/C(=O)NC(CC(C)C)C(N)=O)cc1 (stereo not drawn) | > 31.6 µM (inactive) | > 31.6 µM (inactive) | > 31.6 µM (inactive) | > 100 µM (inactive) | > 31.6 µM (inactive) | > 100 µM (inactive) | > 31.6 µM (inactive) | > 100 µM (inactive) | > 28.9 µM (inactive) | 28.2 µM (inactive) | > 94.4 µM (inactive) | > 100 µM (inactive) | 36.9 µM (inactive) | 14.8 µM (inactive) | 5.58 µM (inactive) | > 100 µM (inactive) | > 31.6 µM (inactive) | 5.64 µM (inactive) | 23.6 µM (inactive) | 5.41 µM (inactive) |
